Data as given in patent publication US20220273759A1, “PHARMACEUTICAL ASSOCIATION FOR CONVERTING A NEOPLASTIC CELL INTO A NON-NEOPLASTIC CELL AND USES THEREOF” (HISTIDE AG, priority 2015, published 2022).

Assays:
[1] = system: Smad1/5/8 signaling pathway; assay: Growth factor receptor activation: western blot quantification of phospho-smad1/5/8; assay type: cell-based; details: Table 4; human osteosarcoma cells MG63; quantification of western blots of phospho-smad1/5/8
Experimental: After 24 hours of culture, cells were permeabilized (10% SDS, 25 mM NaCl, 10 nM pepstatin and 10 nM leupeptin in distilled water and loading buffer), boiled for 10 minutes and resolved by reducing PAGE (Invitrogen). Proteins were transferred onto nitrocellulose, blocked, and labeled with HRP-conjugated antibodies (Invitrogen). Integrin αv, α5, +3, α4, β1, β3, β5 and […] were blotted by treating the nitrocellulose with monoclonal anti-integrin (extracellular domain) αv, α5, +3, α4, β1, β3, β5 and β6 antibodies (Santa Cruz Biotechnology). Phosphor-Smad1/5/8 was blotted by treating the nitrocellulose with monoclonal anti-p-Smad1/5/8 (Santa Cruz Biotechnology). For all of the experiments the western blot was performed in triplicate, along with an additional blot for actin and coomassie blue staining to ensure constant protein load among samples.

[2] = system: human osteosarcoma cells, MG63; assay: Tumor cell recoding via quantification of pRB and p53 (immunofluorescence staining, ImageJ); assay type: cell-based; details: MG63, quantification of pRB
Experimental: The cells were first fixed for 20 min with 4% paraformaldehyde/PBS at 4° C. After fixation, the cells were permeabilized in PBS containing 1% Triton X-100 for 15 min. Protein immunofluorescent visualization was performed by first treating the cells with 1% (v/v) specific monoclonal antibodies for 1 hour at 37° C. Then the samples were incubated with Alexa Fluor® 568 or 647 (F(ab′)2 fragment of IgG(H+L)) during 30 min at room temperature. The cell nuclei were counterstained in 20 ng/mL DAPI for 10 min at room temperature.
For this type of quantification the freeware image analysis ImageJ® software was used. The raw image was first converted to an 8-bit file, and then the unsharp mask feature was used (settings 1:0.2) to remove the image background (rolling ball radius 10). After smoothing, the resulting image, which appears similar to the original photomicrograph but with minimal background, was then converted to a binary image by setting a threshold. Threshold values were determined empirically by selecting a setting, which gave the most accurate binary image for a subset of randomly selected photomicrographs. The cell area was determined by manual delineation on raw fluorescent images. Total contact area and mean contact area per cell were calculated by “analyse particules” in ImageJ®. A minimum of 50 cells per condition were analyzed.
Neoplastic cells (in this example osteosarcoma cells) were cultured on pharmaceutical associations comprising PET as a bioactive carrier and one of GFR-binding compounds of SEQ ID NO: 11 to 14, 24 to 26 and 51 to 63. A rapid (24 hours) decrease of the tumor markers was observed (FIG. 7). The adhesion checkpoint then activates the tumor suppressor proteins p53 and pRB. […]

Sequence | p-Smad1/5/8 (%) [1] [%] | pRB (%) ([2]; Table 4) | pRB (%) ([2]; Table 5)
ASAAPSSAPTALSATSVLYY (Non-cyclic GFR-binding peptide) [SEQ ID NO: 82] | 41 | 19 | 19
ASAAPSSVPQALEPLTILYY (Non-cyclic GFR-binding peptide) [SEQ ID NO: 77] | 55 | 15 | 15
ASAAPSSVPQALRSVKVAKV (Non-cyclic GFR-binding peptide) [SEQ ID NO: 88] | 37 | 18 | 18
ASAAPSSVPQALSSLSILFF (Non-cyclic GFR-binding peptide) [SEQ ID NO: 67] | 38 | 15 | 15
ASASPSSVPQDLRSVKVAKV (Non-cyclic GFR-binding peptide) [SEQ ID NO: 90] | 56 | 9 | 9
ASASPSSVSQDLEPLTILYY (Non-cyclic GFR-binding peptide) [SEQ ID NO: 78] | 52 | 18 | 18
ASASPSSVSQDLSSLSILFF (Non-cyclic GFR-binding peptide) [SEQ ID NO: 68] | 40 | 14 | 14
AVPKASSAPTKLEPISILYL (Non-cyclic GFR-binding peptide) [SEQ ID NO: 70] | 67 | 21 | 21
GIPEPSSTPTKMSPINMLYF (Non-cyclic GFR-binding peptide) [SEQ ID NO: 94] | 39 | 9 | 9
GIPEPSSVPQKMEPLPIVYY (Non-cyclic GFR-binding peptide) [SEQ ID NO: 75] | 51 | 10 | 10
HVPKPSSAPTKLEPISILYL (Non-cyclic GFR-binding peptide) [SEQ ID NO: 100] | 75 | 19 | 19
KASKASSVPQKLEPLPIVYY (Non-cyclic GFR-binding peptide) [SEQ ID NO: 85] | 22 | 10 | 10
KIPKASSTPTELSPINMLYF (Non-cyclic GFR-binding peptide) [SEQ ID NO: 93] | 47 | 7 | 7
KIPKASSVPQELEPLPIVYY (Non-cyclic GFR-binding peptide) [SEQ ID NO: 74] | 44 | 9 | 9
KIPKASSVPTELSPISVLYK (Non-cyclic GFR-binding peptide) [SEQ ID NO: 87] | 32 | 21 | 21
KVGKASSVPQKLEPLPIVYY (Non-cyclic GFR-binding peptide) [SEQ ID NO: 84] | 33 | 9 | 9
KVGKASSVPTKLEPISILYL (Non-cyclic GFR-binding peptide) [SEQ ID NO: 71] | 66 | 17 | 17
NDEGLESVPTEEEPLTILYY (Non-cyclic GFR-binding peptide) [SEQ ID NO: 79] | 58 | 17 | 17
NDEGLESVPTEERSVKVAKV (Non-cyclic GFR-binding peptide) [SEQ ID NO: 91] | 55 | 12 | 12

Sequence | p-Smad1/5/8 (%) [1] [%] | pRB (%) ([2]; Table 4) | pRB (%) ([2]; Table 5)
NDEGLESVPTEESAISMLYL (Non-cyclic GFR-binding peptide) [SEQ ID NO: 96] | 78 | 22 | 22
NDEGLESVPTEESSLSILFF (Non-cyclic GFR-binding peptide) [SEQ ID NO: 80] | 27 | 9 | 9
RNVQSRPTQVQLKPLSMLYV (Non-cyclic GFR-binding peptide) [SEQ ID NO: 73] | 48 | 16 | 16
RNVQSRPTQVQLSPISILFI (Non-cyclic GFR-binding peptide) [SEQ ID NO: 98] | 34 | 17 | 17
RNVQSRPVPTQLSPISVLYK (Non-cyclic GFR-binding peptide) [SEQ ID NO: 86] | 26 | 24 | 24
RVPSTSSAPTKTSATSVLYY (Non-cyclic GFR-binding peptide) [SEQ ID NO: 81] | 34 | 17 | 17
SIPKASSTPTELSPINMLYF (Non-cyclic GFR-binding peptide) [SEQ ID NO: 64] | 37 | 23 | 23
SIPKASSVPQELEPLPIVYY (Non-cyclic GFR-binding peptide) [SEQ ID NO: 76] | 54 | 8 | 8
SSVKSQPSRVHHKPLSMLYV (Non-cyclic GFR-binding peptide) [SEQ ID NO: 72] | 47 | 19 | 19
SSVKSQPSRVHHSPISILFI (Non-cyclic GFR-binding peptide) [SEQ ID NO: 97] | 39 | 14 | 14
TKPTSTPTKLSPINMLYF (Non-cyclic GFR-binding peptide) [SEQ ID NO: 65] | 36 | 10 | 10
TQVKMRPVQVRKI (Non-cyclic GFR-binding peptide) [SEQ ID NO: 92] | 44 | 8 | 8
TVPKPSSAPTQLRSVKVAKV (Non-cyclic GFR-binding peptide) [SEQ ID NO: 83] | 35 | 12 | 12
VPTGQSAISMLYL (Non-cyclic GFR-binding peptide) [SEQ ID NO: 95] | 52 | 17 | 17
VSQDLRSVKVAKV (Non-cyclic GFR-binding peptide) [SEQ ID NO: 89] | 36 | 17 | 17
VVPKPSSAPTQLEPISILYL (Non-cyclic GFR-binding peptide) [SEQ ID NO: 69] | 39 | 20 | 20
YVPKPSSAPTKLNAISVLYF (Non-cyclic GFR-binding peptide) [SEQ ID NO: 99] | 66 | 21 | 21
YVPKPSSTPTKLSPINMLYF (Non-cyclic GFR-binding peptide) [SEQ ID NO: 66] | 38 | 8 | 8
